Results as given in paper PMC5454592, “Pharmacological and Toxicological Properties of the Potent Oral γ-Secretase Modulator BPN-15606” (The Journal of Pharmacology and Experimental Therapeutics, 2017).
“Also recorded” adds a separate entry of the source. Read-outs that look alike come from different tables or passages of the source.

Key:
[1] = tested on: bone marrow polychromatic erythrocytes; assay: Bone marrow micronucleus assay in rats; assay type: in vivo; conditions: 7 days at 30 or 100 mg/kg
Procedure: The micronucleus component of this study was performed to evaluate the ability of BPN-15606 to induce chromosomal damage in bone marrow of male Sprague–Dawley rats. Rats (n = 5/group) were scheduled to receive single daily doses of BPN-15606 for 7 days at 30, 100, and 300 mg/kg/d (groups 2, 3, and 4, respectively), with euthanasia scheduled 24 hours after the final dose. Animals receiving 300 mg/kg/d were sacrificed in moribund condition on day 3 or 4 due to excessive toxicity, and micronucleus formation was not evaluated; all other treated animals survived to necropsy. Bone marrow samples collected from the low and mid dose groups (30 and 100 mg/kg) were evaluated for cytotoxicity and for micronucleus formation (see Supplemental Table 8). Three bone marrow smear slides were prepared per animal and fixed in absolute methanol. […] Two slides per animal were stained with acridine orange, coded, and evaluated (blind) using epifluorescence microscopy. […] The criteria employed for identifying and quantitating micronuclei are those described by [Schmid (1975)]. Two principal parameters were determined, as follows: 1) the number of PCE among 200 total red blood cells (RBC) per animal (PCE/RBC ratio), which provides an index of bone marrow cytotoxicity, and 2) the number of micronucleated RNA-positive PCE among a total of 2000 PCE per animal, which provides an index of chromosomal damage.

[2] = Toxicokinetics in NHP (300 mg/kg repeat dose); assay type: in vivo, cynomolgus macaques; conditions: cynomolgus monkey
Procedure: The objectives of this study were to determine the MTD of BPN-15606, characterize potential toxicity, and calculate toxicokinetic parameters of BPN-15606 in adult male and female cynomolgus macaques following daily po dose administration at a near-MTD dose of BPN-15606 for 7 consecutive days. In the dose escalation phase to establish the MTD (phase A), male and female cynomolgus macaques (n = 2/sex) were administered single doses of BPN-15606 at 3, 10, 30, 100, and 300 mg/kg, with 2 to 4 days between each dose escalation (Fig. 10). […] The plasma drug concentrations at the approximate Tmax increased in a dose-dependent manner. […] Comprehensive evaluation of clinical pathology parameters (clinical chemistry, hematology), gross pathology, and histopathologic parameters was carried out at SRI International, according to their standardized protocols. Tissues examined histopathologically included the following: liver, lung, stomach, duodenum, colon, spleen, pancreas, thymus, heart, brain, and kidney.

[3] = tested on: Aβ42 and Aβ40 levels; assay: Repeat-dose (9-day) efficacy study in rats; assay type: in vivo, Sprague–Dawley rats
Procedure: (§1) Male C57BL/6J mice (n = 10/dose level) and male Sprague–Dawley rats (n = 14/dose level) were administered either vehicle (80% polyethylene glycol 400 v/v; 20% sterile water v/v and 0.1% Tween 20 v/v) or BPN-15606 (10, 25, and 50 mg/kg) once daily po for 7 consecutive days (mice) or 5, 25, and 50 mg/kg once daily po for 9 consecutive days (rats). […] Animals were sacrificed 4 hours following the dosing on day 7 of the 7-day oral treatment course (mice) and on day 9 of the 9-day oral treatment course (rats). Plasma and brain extracts were prepared (mice and rats); CSF was aspirated from the cisterna magnum with minimal to no blood contamination (rats only); and tissues were frozen at −70°C. Aβ peptides were quantitated in brain extracts and plasma (mice) or CSF and plasma (rats), as described previously, using Meso Scale multiplex kits and the Meso Scale Sector Imager 6000 ([Kounnas et al., 2010]). Statistical analysis was performed using GraphPad Prism software, and results are expressed as mean ± S.E.M. Analysis of variance was used to detect a significant effect. Drug levels of BPN-15606 were measured in plasma and brain extracts using the bioanalytical methods detailed above.

[4] = Repeat-dose (9-day) efficacy study in rats; assay type: in vivo, Sprague–Dawley rats; conditions: male, Sprague-Dawley, rat, in vivo
Procedure: as §1

[5] = Toxicokinetics in rats (7-day po); assay type: in vivo; conditions: male, Sprague-Dawley, rat, plasma; for MRT last: day 1, read-out: mean residence time to the last time point
Procedure: Data were subjected to noncompartmental analysis using WinNonlin Phoenix Model 200 (for extravascular administration) or Model 201 (for i.v. bolus administration) and the sparse sampling feature; a uniform weighting factor was applied to each data set. Time to maximum plasma concentration (Tmax) and maximum plasma concentration (Cmax) values were determined directly from the data. Area under the plasma concentration–time curve to the last time point (AUClast) values were calculated using the log/linear trapezoidal (i.v. dose) or linear up/log down trapezoidal (po dose). Values were calculated using the plasma data from composite groups. The dose administered was input to the program as mg/kg, and as a result no additional corrections for individual body weights of the animals were necessary. The following parameters and constants were determined for the i.v. and po groups: observed Cmax, Tmax, AUClast, area under the plasma concentration–time curve extrapolated to infinity, terminal phase elimination half-life, and mean residence time to the last time point. The volume of distribution at steady state and clearance were calculated using the i.v. group data. Bioavailability after oral administration was calculated using the AUClast values for both the i.v. and po groups.
The objectives of this toxicity study were to determine maximum tolerated dose (MTD), characterize the potential toxicity, and calculate toxicokinetic parameters of BPN-15606 in adult male Sprague–Dawley rats (8–10 weeks of age) following daily po dose administration for 7 consecutive days, and to evaluate its potential to damage chromosomes or cause mitotic spindle abnormalities in vivo, as measured by the incidence of micronucleus formation in RNA-containing erythrocytes (bone marrow micronucleus assay). An overview of the study design is presented in Supplemental Table 8. Male rats were administered BPN-15606 po for 7 consecutive days at 30, 100, or 300 mg/kg (groups 2, 3, and 4). A control group (group 1) was given vehicle, 15% Labrasol/85% sterile water, at an equivalent dose volume (10 ml/kg). A 375 mg/kg dose (group 5) was included for determination of day 1 plasma drug levels. Clinical observations were recorded twice daily.

[6] = target: γ-secretase (Homo sapiens, UniProt P49768); assay: SHSY5Y-APP cell-based MSD Aβ triplex screening assay; set-up: endogenous in cells; host or cells: human SH-SY5Y neuroblastoma cells stably overexpressing human APP751 wild-type
Procedure: All Aβ assays, including the anti-Aβ immunoprecipitation/matrix-assisted laser desorption/ionization time of flight, were carried out as described previously ([Wagner et al., 2014]).

COc1nc(-c2cc(C)c(N[C@@H](C)c3ccc(F)cc3)nn2)ccc1-n1cnc(C)c1 [BPN-15606, (S)-N-(1-(4-fluorophenyl)ethyl)-6-(6-methoxy-5-(4-methyl-1H-imidazol-1-yl)pyridin-2-yl)-4-methylpyridazin-3-amine]
micronucleus induction in bone marrow (micronucleated PCE) [1]: did not induce micronuclei; also recorded: no statistically significant increase | suppression of PCE among RBC in bone marrow [1]: no significant suppression | half-life ([2]; both sexes, plasma, po, 300 mg/kg, cynomolgus macaques, 300 mg/kg po, day 1): 8.7 h | half-life ([2]; both sexes, plasma, po, 300 mg/kg, cynomolgus macaques, 300 mg/kg po, day 6): 10.2 h | Tmax ([2]; both sexes, plasma, cynomolgus macaques, 300 mg/kg po): 2 to 4 h | exposure (AUClast) day 6 relative to day 1 ([2]; both, in vivo, po, 300 mg/kg): about 1.7 fold | safety margin based on dose ([3]; rat, NOAEL 50 mg/kg vs lowest efficacious dose 5 mg/kg): ≥ 10 fold | lowering of CSF Aβ42 levels ([3]; rats, 5 mg/kg): ~40% | lowering of CSF Aβ42 levels ([3]; rats, 25 mg/kg): 70–75% | lowering of plasma Aβ42 ([3]; rats, 25 mg/kg): > 90% | clinical observations ([3]; rats, 5, 25, 50 mg/kg po daily for 9 days): all animals appeared normal throughout the study | NOAEL at 9 days [4]: 50 mg/kg | Tmax ([5]; 30 mg/kg, rats, 30 mg/kg, day 1, read-out: mean Tmax): 13.3 h | Tmax ([5]; 30 mg/kg, rats, 30 mg/kg, day 7, read-out: mean Tmax): 6.7 h | Tmax ([5]; rats po, depending on dose, read-out: Tmax for individual animals): 4 to 24 h | MRT last ([5]; rats, 30 mg/kg): 9.1 h | MRT last ([5]; rats, 100 mg/kg): 13.6 h | Tmax ([5]; rats, 100 and 300 dose groups, day 1, read-out: mean Tmax (time to the peak plasma drug level)): 18.7 h | AβTotal ([6]; SHSY5Y-APP cells): No change | IC50 ([6]; human SHSY5Y neuroblastoma cells stably overexpressing human APP751 wild-type, read-out: Aβ42 IC50): 7 nM
